Measurements from PubChem BioAssay (NCI).
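At the GI50, growth is halved. TGI: concentration producing complete growth inhibition.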

How the values were obtained:
Assay in all cases: DTP human tumour cell line panel, 384-well format
[1] = tested on: MDA-MB-231 breast
[2] = tested on: OVCAR-3 ovarian
[3] = tested on: OVCAR-5 ovarian
[4] = tested on: MCF7 breast
[5] = tested on: HOP-92 NSCLC
[6] = tested on: 786-0 renal
[7] = tested on: HCT-116 colon
[8] = tested on: KM12 colon
[9] = tested on: CAKI-1 renal
[10] = tested on: MDA-MB-468 breast
[11] = tested on: NCI-H322M lung
[12] = tested on: SK-MEL-28 melanoma
[13] = tested on: OVCAR-4 ovarian

## C[C@H](NC(=O)c1c(C(F)F)nn(C)c1Oc1cccc(C(F)(F)F)c1)c1ccc(C(=O)O)cc1
[1]
  GI50: > 100 µM
  TGI: > 100 µM
[2]
  GI50: > 100 µM
  TGI: > 100 µM
[3]
  GI50: > 100 µM
  TGI: > 100 µM
[4]
  GI50: > 100 µM
  TGI: > 100 µM
[5]
  GI50: > 100 µM
  TGI: > 100 µM
[6]
  GI50: > 100 µM
  TGI: > 100 µM
[7]
  GI50: > 100 µM
  TGI: > 100 µM
[8]
  GI50: > 100 µM
  TGI: > 100 µM
[9]
  GI50: > 100 µM
  TGI: > 100 µM
[10]
  GI50: > 100 µM
  TGI: > 100 µM
[11]
  GI50: > 100 µM
  TGI: > 100 µM
[12]
  GI50: > 100 µM
  TGI: > 100 µM
[13]
  GI50: > 100 µM
  TGI: > 100 µM
